Results reported in article PMC8480901 (PLoS ONE, 2021).
“And” between values parts separate entries of the source, which are not always exact repeats. Identical values can stand only once.

Tested on: human PBMCs
Experiment: LPS-induced cytokine and chemokine levels in human PBMC supernatant (Luminex, ELISA)
Type: cell-based
Conditions: for TNF-α % reduction / TNF-α [pg/mL], Mean / TNF-α [pg/mL], individual value / GM-CSF % reduction / GM-CSF [pg/mL], Mean / GM-CSF [pg/mL], individual value / IL-1β % reduction / IL-1β [pg/mL], Mean / IL-1β [pg/mL], individual value / IL-6 % reduction / IL-6 [pg/mL], Mean / IL-6 [pg/mL], individual value / IL-8 % reduction / IL-8 [pg/mL], Mean / IL-8 [pg/mL], individual value: LPS-stimulated human PBMC supernatant

C=C[C@]1(C)C[C@@H](OC(=O)CS[C@@H]2CC[C@@H](N)C[C@H]2O)[C@]2(C)[C@H](C)CC[C@]3(CCC(=O)[C@H]32)[C@@H](C)[C@@H]1O [Lefamulin]
TNF-α % reduction (0.03 µM): 19% | TNF-α [pg/mL], Mean (0.03 µM): 7210 pg/mL | TNF-α [pg/mL], individual value (0.03 µM): 7885 pg/mL and 6534 pg/mL | GM-CSF % reduction (0.1 µM): -3% | GM-CSF [pg/mL], Mean (0.1 µM): 677 pg/mL | GM-CSF [pg/mL], individual value (0.1 µM): 676 pg/mL and 678 pg/mL | IL-1β % reduction (0.1 µM): 0.28% | IL-1β [pg/mL], Mean (0.1 µM): 12749 pg/mL | IL-1β [pg/mL], individual value (0.1 µM): 11912 pg/mL and 13586 pg/mL | IL-6 % reduction (0.1 µM): 4% | IL-6 [pg/mL], Mean (0.1 µM): 33560 pg/mL | IL-6 [pg/mL], individual value (0.1 µM): 32908 pg/mL and 34212 pg/mL | IL-8 % reduction (0.1 µM): 6% | IL-8 [pg/mL], Mean (0.1 µM): 2899 pg/mL | IL-8 [pg/mL], individual value (0.1 µM): 2852 pg/mL and 2946 pg/mL | TNF-α % reduction (0.1 µM): 9% | TNF-α [pg/mL], Mean (0.1 µM): 8157 pg/mL | TNF-α [pg/mL], individual value (0.1 µM): 7880 pg/mL and 8433 pg/mL | GM-CSF % reduction (0.3 µM): -3% | GM-CSF [pg/mL], Mean (0.3 µM): 677 pg/mL | GM-CSF [pg/mL], individual value (0.3 µM): 692 pg/mL and 662 pg/mL | IL-1β % reduction (0.3 µM): -12% | IL-1β [pg/mL], Mean (0.3 µM): 14379 pg/mL | IL-1β [pg/mL], individual value (0.3 µM): 14814 pg/mL and 13945 pg/mL | IL-6 % reduction (0.3 µM): -0.0984% | IL-6 [pg/mL], Mean (0.3 µM): 34943 pg/mL | IL-6 [pg/mL], individual value (0.3 µM): 35534 pg/mL and 34352 pg/mL | IL-8 % reduction (0.3 µM): -13% | IL-8 [pg/mL], Mean (0.3 µM): 3213 pg/mL | IL-8 [pg/mL], individual value (0.3 µM): 3328 pg/mL and 3097 pg/mL | TNF-α % reduction (0.3 µM): -1.74% | TNF-α [pg/mL], Mean (0.3 µM): 9093 pg/mL | TNF-α [pg/mL], individual value (0.3 µM): 9382 pg/mL and 8804 pg/mL | GM-CSF % reduction (1 µM): -5.35% | GM-CSF [pg/mL], Mean (1 µM): 693 pg/mL | GM-CSF [pg/mL], individual value (1 µM): 646 pg/mL and 740 pg/mL | IL-1β % reduction (1 µM): -4% | IL-1β [pg/mL], Mean (1 µM): 13318 pg/mL | IL-1β [pg/mL], individual value (1 µM): 12337 pg/mL and 14300 pg/mL | IL-6 % reduction (1 µM): -4% | IL-6 [pg/mL], Mean (1 µM): 36293 pg/mL | IL-6 [pg/mL], individual value (1 µM): 36311 pg/mL and 36275 pg/mL | IL-8 % reduction (1 µM): -10% | IL-8 [pg/mL], Mean (1 µM): 3154 pg/mL | IL-8 [pg/mL], individual value (1 µM): 3230 pg/mL and 3077 pg/mL | TNF-α % reduction (1 µM): -5.41% | TNF-α [pg/mL], Mean (1 µM): 9420 pg/mL | TNF-α [pg/mL], individual value (1 µM): 9688 pg/mL and 9151 pg/mL | GM-CSF % reduction (3 µM): -8% | GM-CSF [pg/mL], Mean (3 µM): 711 pg/mL | GM-CSF [pg/mL], individual value (3 µM): 719 pg/mL and 703 pg/mL | IL-1β % reduction (3 µM): 4% | IL-1β [pg/mL], Mean (3 µM): 12272 pg/mL | IL-1β [pg/mL], individual value (3 µM): 10817 pg/mL and 13728 pg/mL | IL-6 % reduction (3 µM): -8.52% | IL-6 [pg/mL], Mean (3 µM): 37884 pg/mL | IL-6 [pg/mL], individual value (3 µM): 36958 pg/mL and 38809 pg/mL | IL-8 % reduction (3 µM): -3% | IL-8 [pg/mL], Mean (3 µM): 3044 pg/mL | IL-8 [pg/mL], individual value (3 µM): 3098 pg/mL and 2991 pg/mL | TNF-α % reduction (3 µM): -12% | TNF-α [pg/mL], Mean (3 µM): 9993 pg/mL | TNF-α [pg/mL], individual value (3 µM): 8826 pg/mL and 11161 pg/mL | GM-CSF % reduction (10 µM): -9% | GM-CSF [pg/mL], Mean (10 µM): 717 pg/mL | GM-CSF [pg/mL], individual value (10 µM): 744 pg/mL and 689 pg/mL | IL-1β % reduction (10 µM): -2.68% | IL-1β [pg/mL], Mean (10 µM): 13127 pg/mL | IL-1β [pg/mL], individual value (10 µM): 12893 pg/mL and 13362 pg/mL | IL-6 % reduction (10 µM): -16% | IL-6 [pg/mL], Mean (10 µM): 40496 pg/mL | IL-6 [pg/mL], individual value (10 µM): 38929 pg/mL and 42063 pg/mL | IL-8 % reduction (10 µM): 13% | IL-8 [pg/mL], Mean (10 µM): 2781 pg/mL | IL-8 [pg/mL], individual value (10 µM): 2867 pg/mL and 2696 pg/mL | TNF-α % reduction (10 µM): -3.32% | TNF-α [pg/mL], Mean (10 µM): 9234 pg/mL | TNF-α [pg/mL], individual value (10 µM): 8438 pg/mL and 10030 pg/mL | GM-CSF % reduction (30 µM): -38% | GM-CSF [pg/mL], Mean (30 µM): 905 pg/mL | GM-CSF [pg/mL], individual value (30 µM): 938 pg/mL and 871 pg/mL | IL-1β % reduction (30 µM): -19% | IL-1β [pg/mL], Mean (30 µM): 15264 pg/mL | IL-1β [pg/mL], individual value (30 µM): 15102 pg/mL and 15425 pg/mL | IL-6 % reduction (30 µM): -24% | IL-6 [pg/mL], Mean (30 µM): 43122 pg/mL | IL-6 [pg/mL], individual value (30 µM): 44285 pg/mL and 41958 pg/mL | IL-8 % reduction (30 µM): 27% | IL-8 [pg/mL], Mean (30 µM): 2563 pg/mL | IL-8 [pg/mL], individual value (30 µM): 2485 pg/mL and 2640 pg/mL | TNF-α % reduction (30 µM): 33% | TNF-α [pg/mL], Mean (30 µM): 6044 pg/mL | TNF-α [pg/mL], individual value (30 µM): 6330 pg/mL and 5758 pg/mL | GM-CSF % reduction (100 µM): -97% | GM-CSF [pg/mL], Mean (100 µM): 1293 pg/mL | GM-CSF [pg/mL], individual value (100 µM): 1274 pg/mL and 1313 pg/mL | IL-1β % reduction (100 µM): -71% | IL-1β [pg/mL], Mean (100 µM): 21910 pg/mL | IL-1β [pg/mL], individual value (100 µM): 21940 pg/mL and 21880 pg/mL | IL-6 % reduction (100 µM): 23% | IL-6 [pg/mL], Mean (100 µM): 26707 pg/mL | IL-6 [pg/mL], individual value (100 µM): 26414 pg/mL and 27001 pg/mL | IL-8 % reduction (100 µM): 11% | IL-8 [pg/mL], Mean (100 µM): 2809 pg/mL | IL-8 [pg/mL], individual value (100 µM): 2812 pg/mL and 2806 pg/mL | TNF-α % reduction (100 µM): 74% | TNF-α [pg/mL], Mean (100 µM): 2354 pg/mL | TNF-α [pg/mL], individual value (100 µM): 2393 pg/mL and 2315 pg/mL | levels of the measured LPS-induced cytokines, chemokines, or MMP-9 in supernatants (human PBMCs, concentrations tested (100 μM not shown)): little to no reduction
